Values of other authors in patent US11896675B2, “Site-specific antibody conjugation and antibody-drug conjugate as specific embodiment thereof” (AbTis Co., Ltd., priority 2019, dated 2024).
Square brackets hold non-standard residues; d marks the D form. Ends that are not written are not given here. Cit = NC(=O)NCCC[C@H](N)C(=O)O

Legend:
[1] = target: IgG; conditions: towards IgG, obtained at different conditions or by different methods; for Kd: read-out: Binding Constant Kd
[2] = test system: IgG; conditions: towards IgG

Substance	Kd [1] [µM]	Binding Capacity (maximal binding capacity qm) [2] [mg/mL]	Binding Constant Ka [1]	Binding Capacity [2] [µg/g]	Binding Capacity, DBC (dynamic binding capacity) [2]
APAR [comb. tetrapeptide library peptide]	0.094	9.1	–	–	–
D2AAG (DDAAG) [Compound D2AAG, comb. library ligand, SpA mimic]	–	36.2	Ka = 7.9 × 10^5M^−1	–	–
DAAG [comb. library ligand, SpA mimic]	–	49.6	Ka = 2.6 × 10^5M^−1	–	–
EPIHRSTLTALL [phage display library peptide, SpA mimic]	–	–	–	320	–
FRRHL [comb. library peptide, SpA mimic]	26	33.6	–	–	–
FYCHTIDE [FYCHTIDE(3)]	5.7	63.7	–	–	–
FYCHWALE	6.1	87.6	–	–	–
FYWHCLDE	1.5	104.2	–	–	–
HWCitGWV (HW[Cit]GWV) [comb. library peptide, SpA mimic]	108	78	–	–	–
HWRGWV [comb. library peptide, SpA mimic]	10	26.4	–	–	–
HYFKFD [comb. library peptide, SpA mimic]	11	27.0	–	–	–
KHRFNKD [phage-display library peptide, SpA mimic]	0.02	–	–	–	–
NARKFYKG [spot peptide array peptide]	–	–	Ka = 6.5 × 10^6M^−1	–	DBC-5.0
NKFRGKYK [spot peptide array peptide]	–	–	Ka = 8.6 × 10^6M^−1	–	DBC-4.9
RRGW	0.0005	–	–	–	–
cyclo[(Link-M-WFRHYK]	7.6	19.7	–	–	–
